Reference: patent US20080318943A1, “Compounds and Uses Thereof - 848” (ASTRAZENECA AB, priority 2007, published 2008)

How the values were obtained:
GABAA receptor α1β2γ2 = target: T1, GABAA receptor α1β2γ2 (Homo sapiens, UniProt P14867+P18507); assay: Two-electrode voltage-clamp potentiation of GABA EC10 current in Xenopus oocytes, GABAA1; type: cell-based; conditions: percentage potentiation of GABA EC10 current divided by that of diazepam
T1 construct: expressed in transfected cells; host or cells: Xenopus laevis oocytes injected with cRNA
T1 sequence (P14867 28-456): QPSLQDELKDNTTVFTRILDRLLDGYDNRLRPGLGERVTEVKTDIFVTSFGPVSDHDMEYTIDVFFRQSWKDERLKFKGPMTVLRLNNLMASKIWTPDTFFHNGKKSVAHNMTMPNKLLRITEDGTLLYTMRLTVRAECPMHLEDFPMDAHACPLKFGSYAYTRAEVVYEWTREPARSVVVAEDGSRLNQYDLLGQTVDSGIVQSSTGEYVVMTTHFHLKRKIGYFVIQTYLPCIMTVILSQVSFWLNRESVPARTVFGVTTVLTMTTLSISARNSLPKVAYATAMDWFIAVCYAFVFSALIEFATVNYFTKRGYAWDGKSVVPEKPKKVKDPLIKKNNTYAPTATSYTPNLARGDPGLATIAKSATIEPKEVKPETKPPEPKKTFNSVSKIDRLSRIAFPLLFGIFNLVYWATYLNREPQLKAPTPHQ
T1 sequence (P47870 25-512 partner limits assumed): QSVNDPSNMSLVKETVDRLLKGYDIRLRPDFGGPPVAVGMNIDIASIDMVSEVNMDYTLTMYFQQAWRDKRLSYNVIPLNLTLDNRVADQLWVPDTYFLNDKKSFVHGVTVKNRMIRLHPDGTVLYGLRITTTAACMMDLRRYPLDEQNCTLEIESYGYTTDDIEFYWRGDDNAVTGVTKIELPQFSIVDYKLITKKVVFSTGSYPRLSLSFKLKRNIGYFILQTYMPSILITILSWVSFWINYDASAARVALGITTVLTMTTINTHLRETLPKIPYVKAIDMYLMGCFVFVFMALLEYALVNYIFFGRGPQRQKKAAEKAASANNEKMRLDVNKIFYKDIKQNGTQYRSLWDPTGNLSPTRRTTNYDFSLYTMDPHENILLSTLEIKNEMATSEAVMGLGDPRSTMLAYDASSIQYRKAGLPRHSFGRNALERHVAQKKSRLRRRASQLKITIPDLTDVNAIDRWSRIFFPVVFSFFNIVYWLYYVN
T1 sequence (P18507 40-475): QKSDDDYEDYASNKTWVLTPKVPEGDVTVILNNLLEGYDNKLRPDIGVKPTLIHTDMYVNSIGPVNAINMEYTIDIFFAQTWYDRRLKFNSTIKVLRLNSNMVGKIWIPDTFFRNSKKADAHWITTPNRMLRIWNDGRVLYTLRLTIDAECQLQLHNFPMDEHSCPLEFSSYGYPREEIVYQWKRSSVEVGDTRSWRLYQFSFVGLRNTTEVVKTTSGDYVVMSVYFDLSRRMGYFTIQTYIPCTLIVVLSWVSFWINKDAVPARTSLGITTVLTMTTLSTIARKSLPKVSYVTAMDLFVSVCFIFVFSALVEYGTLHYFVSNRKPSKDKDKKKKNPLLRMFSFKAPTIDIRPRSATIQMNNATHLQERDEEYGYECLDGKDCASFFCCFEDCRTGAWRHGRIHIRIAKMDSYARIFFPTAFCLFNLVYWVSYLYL
Description: GABAA receptors were heterologously expressed in Xenopus oocytes by injecting cRNA corresponding to human α1, α2, α3, α5, β2, P3 and γ2 subunits of the GABAA receptor genes. The specific subunit combinations (subtypes) were as follows: α1β2γ2, α2β3γ2, α3β3γ2, and α5β3γ2. The EC10 of GABA is approximated for each cell. Stability of GABA-mediated (EC10) current is established. Modulatory effect of test compound is determined and compared across subtypes. […] Thus, the assay can characterize modulatory effects and determine subtype selectivity of test compounds on major subtypes of GABAA receptors.
Xenopus laevis frogs (Xenopus I, Kalamazoo, Mich.) were anesthetized using 0.15% tricaine. Surgically removed ovarian lobes were teased out in OR2 solution (82 NaCl, 2.5 KCl, 5 HEPES, 1.5 NaH2PO4, 1 MgCl2, 0.1 EDTA, in mM, pH 7.4). The oocytes were defolliculated by incubation in 25 mL OR2 containing 0.2% collagenase 1A (SIGMA) two times for about 60 minutes on a platform shaker and stored in Leibovitz's L-15 medium. Oocytes were injected the following day in 0.5× Leibovitz's L-15 medium containing […] gentamycin, 10 units/ml penicillin, and […] streptomycin.
Capped cRNAs from the linearized vectors containing human α1, β2 and γ2 subunits of the GABAA receptor genes were mixed in ratio of […]. Oocytes were injected with 25-50 nL of mixed RNA with an appx molar ratio for α1, β2, and γ2 as 1:1:10. Oocyte recordings were done 2-10 days after injection. The same methods apply to subtypes derived from α2β3γ2, α3β3γ2, and α5β3γ2, except for 1:1:1 ratio was used for α, β, and γ subunits.
All measurements were done in a medium containing ND-96 (96 NaCl, 2 KCl, 1.8 CaCl2.2H2O, 1 MgCl2.6H2O, 5 HEPES, in mM, pH 7.5). Two-electrode voltage-clamp recording was carried out using OpusXpress amplifier (Axon Instruments, Foster City, Calif.), which allows simultaneous recording from 8 oocytes. Oocytes were impaled with two electrodes of 1-2 MΩ tip resistance when filled with 3M KCl. Recordings were begun when membrane potential became stable at potentials negative to −50-−60 mV. Membrane potential was held at −60 mV. […] The concentration of GABA corresponded to the EC10 value calculated for each oocyte. The modulator pulses started 30 s before the GABA pulse so as to allow preincubation with the modulator. A set of 3 pulses with just GABA without modulator was given prior to the modulator-containing pulses to define the baseline GABA response. Two oocytes per each experiment were dedicated to observe the effect of diazepam on GABA response to ensure the presence of γ2 subunit in the GABAA pentameric complex, which imparts diazepam sensitivity to the complex.
Current amplitude (i) was measured from baseline to peak using Clampfit (Axon Inst., Foster City, Calif.). Potentiation was calculated as percent change from the baseline GABA current flux 100×(imod/icontrol)−1) where imod=current mediated by modulator+GABA and icontrol=current mediated by GABA alone. […] Similarly, a value of −50% potentiation means the presence of modulator caused a 50% decrease in the control current. Various other data shown here were fitted and plotted using GraphPad Prism (GraphPad Software, Inc. San Diego, Calif.). The percentage potentiation was converted to relative potentiation by dividing it with percentage potentiation value obtained from the same assay with diazepam as a control.

[1] = target: T2, GABAA2 receptors (α2, β3, γ2 receptor subunits transfected into Sf9 cells) (Homo sapiens, UniProt P18507+P47869); assay: GABAA2 Binding Method ([3H]-Flunitrazepam displacement); conditions: [3H]-Flunitrazepam ~2 nM, α2β3γ2 Sf9 membranes, 1 hr at 4° C.
T2 construct: host or cells: Sf9 cells (membranes)
T2 sequence (P47869 29-451): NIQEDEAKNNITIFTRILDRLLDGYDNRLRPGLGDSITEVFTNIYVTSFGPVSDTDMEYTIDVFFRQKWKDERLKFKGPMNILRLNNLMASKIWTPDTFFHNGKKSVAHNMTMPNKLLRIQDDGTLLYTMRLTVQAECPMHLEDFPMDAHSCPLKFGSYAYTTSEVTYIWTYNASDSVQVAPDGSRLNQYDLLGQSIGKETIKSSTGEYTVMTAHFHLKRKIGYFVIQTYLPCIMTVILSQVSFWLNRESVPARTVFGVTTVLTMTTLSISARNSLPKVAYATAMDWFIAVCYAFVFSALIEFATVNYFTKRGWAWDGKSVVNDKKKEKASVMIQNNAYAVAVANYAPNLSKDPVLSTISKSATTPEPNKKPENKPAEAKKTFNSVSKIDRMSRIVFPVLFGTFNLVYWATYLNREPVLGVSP
T2 sequence (P28472 26-473 partner): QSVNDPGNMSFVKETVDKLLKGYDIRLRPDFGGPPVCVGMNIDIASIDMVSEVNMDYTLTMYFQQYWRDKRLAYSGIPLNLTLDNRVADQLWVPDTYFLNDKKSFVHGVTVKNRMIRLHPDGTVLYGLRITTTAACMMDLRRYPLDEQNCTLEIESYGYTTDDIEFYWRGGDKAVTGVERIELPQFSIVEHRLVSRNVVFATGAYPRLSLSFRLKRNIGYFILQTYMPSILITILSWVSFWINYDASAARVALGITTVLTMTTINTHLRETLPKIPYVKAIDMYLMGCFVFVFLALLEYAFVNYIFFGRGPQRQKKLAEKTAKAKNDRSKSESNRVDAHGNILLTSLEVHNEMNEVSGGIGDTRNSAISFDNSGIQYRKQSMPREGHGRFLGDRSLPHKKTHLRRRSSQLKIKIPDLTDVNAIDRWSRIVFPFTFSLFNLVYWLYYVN
T2 sequence (P18507 40-475): as the sequence (P18507 40-475) above
How it was run: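 Displacement of [3H]-flunitrazepam (~2 nM in assay) from recombinant human α2β3γ2 receptors in Sf9 membranes; 1 h incubation at 4 °C, harvest by filtration. Values reported as percent of control, IC50 and Ki.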

Compound	Relative Potentiation for GABAA1 (GABAA receptor α1β2γ2)	Ki [1]
CCCN1Cc2nc3c(-c4cnc(OC)nc4OC)c(F)ccc3c(N)c2C1=O [9-amino-5-(2,4-dimethoxypyrimidin-5-yl)-6-fluoro-2-propyl-2,3-dihydro-1H-pyrrolo[3,4-b]quinolin-1-one]	0.22	8.89 nM
COc1ccc(CN2Cc3nc4c(-c5cc(F)c(OC)cc5F)cccc4c(N)c3C2=O)cc1 [9-amino-5-(2,5-difluoro-4-methoxyphenyl)-2-(4-methoxybenzyl)-2,3-dihydro-1H-pyrrolo[3,4-b]quinolin-1-one]	0.29	48.4 nM
COc1cccc(CN2Cc3nc4c(-c5cc(OC)ccc5OC)cccc4c(N)c3C2=O)c1 [9-amino-5-(2,5-dimethoxyphenyl)-2-(3-methoxybenzyl)-2,3-dihydro-1H-pyrrolo[3,4-b]quinolin-1-one]	0.25	26.9 nM
CCCN1Cc2nc3c(-c4c(F)cc(OC)cc4F)cccc3c(N)c2C1=O [9-amino-5-(2,6-difluoro-4-methoxyphenyl)-2-propyl-2,3-dihydro-1H-pyrrolo[3,4-b]quinolin-1-one]	0.16	12.2 nM
CCCN1Cc2nc3c(-c4ccc(F)nc4F)cccc3c(N)c2C1=O [9-amino-5-(2,6-difluoropyridin-3-yl)-2-propyl-2,3-dihydro-1H-pyrrolo[3,4-b]quinolin-1-one]	0.21	75.3 nM
CCCN1Cc2nc3c(-c4cc(F)cnc4Cl)cccc3c(N)c2C1=O [9-amino-5-(2-chloro-5-fluoropyridin-3-yl)-2-propyl-2,3-dihydro-1H-pyrrolo[3,4-b]quinolin-1-one]	0.38	16.3 nM
CCCN1Cc2nc3c(-c4cc(OC)cnc4Cl)cccc3c(N)c2C1=O [9-amino-5-(2-chloro-5-methoxypyridin-3-yl)-2-propyl-2,3-dihydro-1H-pyrrolo[3,4-b]quinolin-1-one]	0.45	9.72 nM
Cc1ccc(-c2cccc3c(N)c4c(nc23)CN(C2CC2)C4=O)c(Cl)n1 [9-amino-5-(2-chloro-6-methylpyridin-3-yl)-2-cyclopropyl-2,3-dihydro-1H-pyrrolo[3,4-b]quinolin-1-one]	0.4	7.87 nM
CCCN1Cc2nc3c(-c4ccccc4Cl)cccc3c(N)c2C1=O [9-amino-5-(2-chlorophenyl)-2-propyl-2,3-dihydro-1H-pyrrolo[3,4-b]quinolin-1-one]	0.35	4.82 nM
CCCN1Cc2nc3c(-c4cccnc4OCC)cccc3c(N)c2C1=O [9-amino-5-(2-ethoxypyridin-3-yl)-2-propyl-2,3-dihydro-1H-pyrrolo[3,4-b]quinolin-1-one]	0.56	15 nM
COc1ccc(CN2Cc3nc4c(-c5cccc(OC)c5F)cccc4c(N)c3C2=O)cc1 [9-amino-5-(2-fluoro-3-methoxyphenyl)-2-(4-methoxybenzyl)-2,3-dihydro-1H-pyrrolo[3,4-b]quinolin-1-one]	0.36	8.03 nM
CCCN1Cc2nc3c(-c4cccc(OC)c4F)cccc3c(N)c2C1=O [9-amino-5-(2-fluoro-3-methoxyphenyl)-2-propyl-2,3-dihydro-1H-pyrrolo[3,4-b]quinolin-1-one]	0.2	11.5 nM
CCCN1Cc2nc3c(-c4ccc(OC)cc4F)cccc3c(N)c2C1=O [9-amino-5-(2-fluoro-4-methoxyphenyl)-2-propyl-2,3-dihydro-1H-pyrrolo[3,4-b]quinolin-1-one]	0.12	12.8 nM
CCCN1Cc2nc3c(-c4cc(C(F)(F)F)ccc4F)cccc3c(N)c2C1=O [9-amino-5-(2-fluoro-5-(trifluoromethyl)phenyl)-2-propyl-2,3-dihydro-1H-pyrrolo[3,4-b]quinolin-1-one]	0.55	24 nM
CCCN1Cc2nc3c(-c4cc(F)ncc4OC)cccc3c(N)c2C1=O [9-amino-5-(2-fluoro-5-methoxypyridin-4-yl)-2-propyl-2,3-dihydro-1H-pyrrolo[3,4-b]quinolin-1-one]	0.6	8.08 nM
CCCN1Cc2nc3c(-c4cc(C)ccc4F)cccc3c(N)c2C1=O [9-amino-5-(2-fluoro-5-methylphenyl)-2-propyl-2,3-dihydro-1H-pyrrolo[3,4-b]quinolin-1-one]	0.27	6.77 nM
CCCN1Cc2nc3c(-c4cc(C)cnc4F)cccc3c(N)c2C1=O [9-amino-5-(2-fluoro-5-methylpyridin-3-yl)-2-propyl-2,3-dihydro-1H-pyrrolo[3,4-b]quinolin-1-one]	0.33	7.55 nM
COc1ccc([C@@H](C)N2Cc3nc4c(-c5c(F)cccc5OC)cccc4c(N)c3C2=O)cc1 [9-amino-5-(2-fluoro-6-methoxyphenyl)-2-((R)-1-(4-methoxyphenyl)ethyl)-2,3-dihydro-1H-pyrrolo[3,4-b]quinolin-1-one]	−0.008	20.9 nM
CCCN1Cc2nc3c(-c4ccc(C)nc4OC)cccc3c(N)c2C1=O [9-amino-5-(2-methoxy-6-methylpyridin-3-yl)-2-propyl-2,3-dihydro-1H-pyrrolo[3,4-b]quinolin-1-one]	1.1	24 nM
CCCN1Cc2nc3c(-c4ccc(OC)c(OC)c4)cccc3c(N)c2C1=O [9-amino-5-(3,4-dimethoxyphenyl)-2-propyl-2,3-dihydro-1H-pyrrolo[3,4-b]quinolin-1-one]	1.1	12.3 nM
COc1ccc(CN2Cc3nc4c(-c5cc(F)cc(F)c5)cccc4c(N)c3C2=O)cc1OC [9-amino-5-(3,5-difluorophenyl)-2-(3,4-dimethoxybenzyl)-2,3-dihydro-1H-pyrrolo[3,4-b]quinolin-1-one]	0.24	15.3 nM
CCCN1Cc2nc3c(-c4cc(OC)cc(OC)c4)cccc3c(N)c2C1=O [9-amino-5-(3,5-dimethoxyphenyl)-2-propyl-2,3-dihydro-1H-pyrrolo[3,4-b]quinolin-1-one]	0.6	46.7 nM
CCN1Cc2nc3c(-c4cc(C)cc(C)c4)cccc3c(N)c2C1=O [9-amino-5-(3,5-dimethylphenyl)-2-ethyl-2,3-dihydro-1H-pyrrolo[3,4-b]quinolin-1-one]	0.34	14.2 nM
CCCN1Cc2nc3c(-c4cccc(N(C)C)c4)cccc3c(N)c2C1=O [9-amino-5-(3-(dimethylamino)phenyl)-2-propyl-2,3-dihydro-1H-pyrrolo[3,4-b]quinolin-1-one]	0.27	37.4 nM
COc1ccc(CN2Cc3nc4c(-c5ccc(F)cc5OC)cccc4c(N)c3C2=O)cc1 [9-amino-5-(4-fluoro-2-methoxyphenyl)-2-(4-methoxybenzyl)-2,3-dihydro-1H-pyrrolo[3,4-b]quinolin-1-one]	0.22	31.2 nM
CCCN1Cc2nc3c(-c4ccc(OC)cc4C(F)(F)F)cccc3c(N)c2C1=O [9-amino-5-(4-methoxy-2-(trifluoromethyl)phenyl)-2-propyl-2,3-dihydro-1H-pyrrolo[3,4-b]quinolin-1-one]	0.25	10.4 nM
